{
  "source": "BindingDB's records for doi:10.1021/jm990281p",
  "about": "(Parke-Davis Pharmaceutical Research, 2000)",
  "key": {"[1]": {"molecular_target": "T1, Gag-Pol polyprotein [489-587] (Human immunodeficiency virus 1, UniProt P04585)", "T1 construct": "489-587", "experiment": "Protease Inhibition Assay", "description": "(§1) Sensitivity of HIV-1 protease activity to protease inhibitors was determined by a peptide substrate cleavage assay. Protease products were analyzed on a reverse-phase high-pressure liquid chromatograph."}, "[2]": {"molecular_target": "T2, Dimer of Gag-Pol polyprotein [489-587] (Human immunodeficiency virus 1, UniProt P12497)", "T2 construct": "489-587", "experiment": "Protease Inhibition Assay", "description": "as §1"}},
  "data": [
    {"compound": "Cc1cc(SC2C(=O)CC(CCc3ccc(N)cc3)(C(C)C)OC2=O)c(C(C)(C)C)cc1OS(=O)(=O)c1ccc(C#N)cc1", "note": "(stereo unspecified)", "values": [
      {"measurement": "IC50", "setting": "[1]", "result": 1.3, "unit": "nM"},
      {"measurement": "IC50", "setting": "[2]", "result": 1.3, "unit": "nM"}
    ]},
    {"compound": "Cc1cc(SC2C(=O)CC(C)(CCc3ccc(O)cc3)OC2=O)c(C(C)(C)C)cc1NS(=O)(=O)c1ccc(C(F)(F)F)cc1", "note": "(stereo unspecified) [N-[5-tert-butyl-4-({4-hydroxy-6-[2-(4-hydroxyphenyl)ethyl]-6-methyl-2-oxo-5,6-dihydro-2H-pyran-3-yl}sulfanyl)-2-methylphenyl]-4-(trifluoromethyl)benzene-1-sulfonamide]", "values": [
      {"measurement": "IC50", "setting": "[1]", "result": 12.3, "unit": "nM"},
      {"measurement": "IC50", "setting": "[2]; pH 6.2, 37 °C", "result": 12.3, "unit": "nM"}
    ]},
    {"compound": "Cc1cc(SC2C(=O)CC(CCc3ccccc3)(C(C)C)OC2=O)c(C(C)(C)C)cc1OS(=O)(=O)c1cccnc1", "note": "(stereo unspecified)", "values": [
      {"measurement": "IC50", "setting": "[1]", "result": 14, "unit": "nM"},
      {"measurement": "IC50", "setting": "[2]", "result": 14, "unit": "nM"}
    ]},
    {"compound": "Cc1cc(SC2C(=O)CC(C)(CCc3ccc(O)cc3)OC2=O)c(C(C)(C)C)cc1OS(=O)(=O)c1ccc(F)cc1", "note": "(stereo unspecified)", "values": [
      {"measurement": "IC50", "setting": "[1]", "result": 16.9, "unit": "nM"},
      {"measurement": "IC50", "setting": "[2]", "result": 16.9, "unit": "nM"}
    ]},
    {"compound": "Cc1cc(SC2C(=O)CC(CCc3ccccc3)(C(C)C)OC2=O)c(C(C)(C)C)cc1NS(=O)(=O)c1cccnc1", "note": "(stereo unspecified)", "values": [
      {"measurement": "IC50", "setting": "[1]", "result": 3.5, "unit": "nM"},
      {"measurement": "IC50", "setting": "[2]", "result": 3.5, "unit": "nM"}
    ]},
    {"compound": "Cc1cc(SC2C(=O)CC(C)(CCc3ccc(O)cc3)OC2=O)c(C(C)(C)C)cc1NS(=O)(=O)c1ccc(F)cc1", "note": "(stereo unspecified) [N-[5-tert-butyl-4-({4-hydroxy-6-[2-(4-hydroxyphenyl)ethyl]-6-methyl-2-oxo-5,6-dihydro-2H-pyran-3-yl}sulfanyl)-2-methylphenyl]-4-fluorobenzene-1-sulfonamide]", "values": [
      {"measurement": "IC50", "setting": "[1]", "result": 3.7, "unit": "nM"},
      {"measurement": "IC50", "setting": "[2]; pH 6.2, 37 °C", "result": 3.7, "unit": "nM"}
    ]},
    {"compound": "Cc1cc(SC2C(=O)CC(CCc3ccc(O)cc3)(C(C)C)OC2=O)c(C(C)(C)C)cc1OS(=O)(=O)c1ccccn1", "note": "(stereo unspecified) [5-tert-butyl-4-({4-hydroxy-6-[2-(4-hydroxyphenyl)ethyl]-2-oxo-6-(propan-2-yl)-5,6-dihydro-2H-pyran-3-yl}sulfanyl)-2-methylphenyl pyridine-2-sulfonate]", "values": [
      {"measurement": "IC50", "setting": "[1]", "result": 5, "unit": "nM"},
      {"measurement": "IC50", "setting": "[2]", "result": 5, "unit": "nM"}
    ]},
    {"compound": "Cc1cc(SC2C(=O)CC(CCc3ccc(O)cc3)(C(C)C)OC2=O)c(C(C)(C)C)cc1NS(=O)(=O)N(C)C", "note": "(stereo unspecified) [3-({2-tert-butyl-4-[(dimethylsulfamoyl)amino]-5-methylphenyl}sulfanyl)-4-hydroxy-6-[2-(4-hydroxyphenyl)ethyl]-6-(propan-2-yl)-5,6-dihydro-2H-pyran-2-one]", "values": [
      {"measurement": "IC50", "setting": "[1]", "result": 3.6, "unit": "nM"},
      {"measurement": "IC50", "setting": "[2]", "result": 3.6, "unit": "nM"}
    ]},
    {"compound": "Cc1cc(SC2C(=O)CC(CCc3ccc(O)cc3)(C(C)C)OC2=O)c(C(C)(C)C)cc1OS(=O)(=O)c1cccs1", "note": "(stereo unspecified) [5-tert-butyl-4-({4-hydroxy-6-[2-(4-hydroxyphenyl)ethyl]-2-oxo-6-(propan-2-yl)-5,6-dihydro-2H-pyran-3-yl}sulfanyl)-2-methylphenyl thiophene-2-sulfonate]", "values": [
      {"measurement": "IC50", "setting": "[1]", "result": 21.8, "unit": "nM"},
      {"measurement": "IC50", "setting": "[2]", "result": 21.8, "unit": "nM"}
    ]},
    {"compound": "Cc1cc(SC2C(=O)CC(CCc3ccc(O)cc3)(C(C)C)OC2=O)c(C(C)(C)C)cc1NS(=O)(=O)c1cccs1", "note": "(stereo unspecified) [N-[5-tert-butyl-4-({4-hydroxy-6-[2-(4-hydroxyphenyl)ethyl]-2-oxo-6-(propan-2-yl)-5,6-dihydro-2H-pyran-3-yl}sulfanyl)-2-methylphenyl]thiophene-2-sulfonamide]", "values": [
      {"measurement": "IC50", "setting": "[1]", "result": 8.7, "unit": "nM"},
      {"measurement": "IC50", "setting": "[2]; pH 6.2, 37 °C", "result": 8.7, "unit": "nM"}
    ]},
    {"compound": "Cc1cc(SC2C(=O)CC(CCc3ccccc3)(C(C)C)OC2=O)c(C(C)(C)C)cc1NS(=O)(=O)c1ccccn1", "note": "(stereo unspecified) [N-(5-tert-butyl-4-{[4-hydroxy-2-oxo-6-(2-phenylethyl)-6-(propan-2-yl)-5,6-dihydro-2H-pyran-3-yl]sulfanyl}-2-methylphenyl)pyridine-2-sulfonamide]", "values": [
      {"measurement": "IC50", "setting": "[1]", "result": 3, "unit": "nM"},
      {"measurement": "IC50", "setting": "[2]", "result": 3, "unit": "nM"}
    ]},
    {"compound": "Cc1cc(SC2C(=O)CC(CCc3ccc(O)cc3)(C3CCCCC3)OC2=O)c(C(C)(C)C)cc1OS(=O)(=O)c1ccc(F)cc1", "note": "(stereo unspecified)", "values": [
      {"measurement": "IC50", "setting": "[1]", "result": 29, "unit": "nM"},
      {"measurement": "IC50", "setting": "[2]", "result": 29, "unit": "nM"}
    ]},
    {"compound": "Cc1cc(SC2C(=O)CC(CCc3ccc(O)cc3)(C(C)C)OC2=O)c(C(C)(C)C)cc1OS(=O)(=O)c1ccccc1", "note": "(stereo unspecified) [5-tert-butyl-4-({4-hydroxy-6-[2-(4-hydroxyphenyl)ethyl]-2-oxo-6-(propan-2-yl)-5,6-dihydro-2H-pyran-3-yl}sulfanyl)-2-methylphenyl benzenesulfonate]", "values": [
      {"measurement": "IC50", "setting": "[1]", "result": 10.4, "unit": "nM"},
      {"measurement": "IC50", "setting": "[2]", "result": 10.4, "unit": "nM"}
    ]}
  ]
}
